According to US9328083B2, “2-aminated methylene or 2-esterified methylene tanshinone derivatives, and preparation method and application thereof” (HANGZHOU BENSHENG PHARMACEUTICAL CO., LTD., priority 2011, dated 2016):
Converted amounts (≈) assume the structure as drawn.

Key:
[1] = test system: H9 (acute lymphoblastic leukemia, ALL); assay: MTT growth inhibition of leukemia cells, 72 h; format: cell-based, human; conditions: Homo sapiens, H9, 72 h; for IC50: read-out: IC50; for IC90: read-out: IC90
Outline: (§1)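 6000 cells/well, RPMI-1640 + 10% FBS; compounds added day 2 (DMSO stock 10 mg/mL, diluted in medium); 72 h, 37 °C, 5% CO2; MTT read-out of viable cells.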

[2] = test system: Jurkat (acute lymphoblastic leukemia, ALL); assay: MTT growth inhibition of leukemia cells, 72 h; format: cell-based, human; conditions: Homo sapiens, 72 h; for IC50: read-out: IC50; for IC90: read-out: IC90
Outline: as §1

[3] = test system: K562/adr (drug-resistant, chronic myeloid leukemia, CML); assay: MTT growth inhibition of leukemia cells, 72 h; format: cell-based, human; conditions: Homo sapiens, K562/Adr; for IC50: read-out: IC50; for IC90: read-out: IC90
Outline: as §1

[4] = test system: Kasumi-1 (acute myeloid leukemia M2 type, AML-M2); assay: MTT growth inhibition of leukemia cells, 72 h; format: cell-based, human; conditions: Homo sapiens, Kasumi-1, 72 h; for IC50: read-out: IC50; for IC90: read-out: IC90
Outline: as §1

[5] = test system: NB4 (acute promyelocytic leukemia, AML); assay: MTT growth inhibition of leukemia cells, 72 h; format: cell-based, human; conditions: Homo sapiens, NB4, 72 h; for IC50: read-out: IC50; for IC90: read-out: IC90
Outline: as §1

[6] = test system: RPMI8226 (multiple myeloma); assay: MTT growth inhibition of multiple myeloma cells, 72 h; format: cell-based, human; conditions: Homo sapiens, RPMI 8226, 72 h; for IC50: read-out: IC50; for IC90: read-out: IC90
Outline: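 Viability read by MTT after 72 h at 37° C, 5% CO2: compounds from a 10 mg/mL DMSO stock were diluted in medium and added at several concentrations to 6000 RPMI8226 cells per well in 1640 medium plus 10% FBS.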

A549 (human lung cancer) = assay: MTT growth inhibition of human solid tumor cells, 72 h; format: cell-based; conditions: Homo sapiens, A549, 72 h; for IC50: read-out: IC50; for IC90: read-out: IC90
Outline: (§2)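 Seeded cells (4000/well) pre-grown 24 h in high-glucose DMEM with 10% FBS at 37° C, 5% CO2, then exposed to graded derivative concentrations.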

[7] = test system: Becap37 (human breast cancer cell); assay: as above; format: cell-based; conditions: Homo sapiens, Becap-37, 72 h; for IC50: read-out: IC50; for IC90: read-out: IC90
Outline: as §2

[8] = test system: CNE (nasopharyngeal carcinoma cell); assay: as above; format: cell-based; conditions: Homo sapiens; for IC50: read-out: IC50; for IC90: read-out: IC90
Outline: as §2

[9] = test system: CaES-17 (esophageal cancer cell); assay: as above; format: cell-based; conditions: Homo sapiens, CaEs17, CaEs-17, 72 h; for IC50: read-out: IC50; for IC90: read-out: IC90
Outline: as §2

[10] = test system: Hela (human cervical cancer cell); assay: as above; format: cell-based; conditions: Homo sapiens, HeLa, 72 h; for IC50: read-out: IC50; for IC90: read-out: IC90
Outline: as §2

[11] = test system: Hep G2 (human liver cancer cell); assay: as above; format: cell-based; conditions: Homo sapiens, HepG2, Hep G2, 72 h; for IC50: read-out: IC50; for IC90: read-out: IC90
Outline: as §2

[12] = test system: Hep-2 (laryngeal carcinoma); assay: as above; format: cell-based; conditions: Homo sapiens, HEp-2, 72 h; for IC50: read-out: IC50; for IC90: read-out: IC90
Outline: as §2

MG63 (osteosarcoma) = assay: as above; format: cell-based; conditions: Homo sapiens, MG-63, 72 h; for IC50: read-out: IC50; for IC90: read-out: IC90
Outline: as §2

[13] = test system: MGC 803 (human gastric cancer cell); assay: as above; format: cell-based; conditions: Homo sapiens, MGC-803, 72 h; for IC50: read-out: IC50; for IC90: read-out: IC90
Outline: as §2

[14] = test system: PANC-1 (pancreatic cancer); assay: as above; format: cell-based; conditions: Homo sapiens, PANC-1, 72 h; for IC50: read-out: IC50; for IC90: read-out: IC90
Outline: as §2

PC-3 (prostate cancer) = assay: as above; format: cell-based; conditions: Homo sapiens, PC-3, 72 h; for IC50: read-out: IC50; for IC90: read-out: IC90
Outline: as §2

[15] = test system: RKO (human colon adenocarcinoma cell); assay: as above; format: cell-based; conditions: Homo sapiens; for IC50: read-out: IC50; for IC90: read-out: IC90
Outline: as §2

[16] = test system: SK-OV-3 (ovarian cancer cell); assay: as above; format: cell-based; conditions: Homo sapiens, SK-OV-3, 72 h; for IC50: read-out: IC50; for IC90: read-out: IC90
Outline: as §2

[17] = test system: U87 MG (malignant glioma cell); assay: as above; format: cell-based; conditions: Homo sapiens, U-87 MG, U87-MG, 72 h; for IC50: read-out: IC50; for IC90: read-out: IC90
Outline: as §2

Cc1c(C[N+](C)(CCO)Cc2ccc(F)c(Cl)c2)oc2c1C(=O)C(=O)c1c-2ccc2c(C)cccc12 (centres unmarked) [BS-TA-60]
IC50 [1]: 1.4 µg/mL | IC90 [1]: 4 µg/mL | IC50 [2]: 1.28 µg/mL | IC90 [2]: 3.99 µg/mL | IC50 [3]: 1.36 µg/mL | IC90 [3]: 5.12 µg/mL | IC50 [4]: 1.61 µg/mL | IC90 [4]: 3.86 µg/mL | IC50 [5]: 0.9 µg/mL | IC90 [5]: 2.98 µg/mL | IC50 [6]: 2 µg/mL | IC90 [6]: 7.64 µg/mL | IC50 (A549 (human lung cancer)): 3.78 µg/mL | IC90 (A549 (human lung cancer)): 9.78 µg/mL | IC50 [7]: 1.88 µg/mL | IC90 [7]: 3.67 µg/mL | IC50 [8]: 3.2 µg/mL | IC90 [8]: 7.2 µg/mL | IC50 [9]: 3.58 µg/mL | IC90 [9]: 7.74 µg/mL | IC50 [10]: 3.32 µg/mL | IC90 [10]: 7.35 µg/mL | IC50 [11]: 2.5 µg/mL | IC90 [11]: 5.97 µg/mL | IC50 [12]: 1.79 µg/mL | IC90 [12]: 7.41 µg/mL | IC50 (MG63 (osteosarcoma)): 1.24 µg/mL | IC90 (MG63 (osteosarcoma)): 5.23 µg/mL | IC50 [13]: 2.9 µg/mL | IC90 [13]: 5.4 µg/mL | IC50 [14]: 1.74 µg/mL | IC90 [14]: 3.58 µg/mL | IC50 (PC-3 (prostate cancer)): 5.03 µg/mL | IC90 (PC-3 (prostate cancer)): 10.8 µg/mL | IC50 [15]: 0.52 µg/mL | IC90 [15]: 1.88 µg/mL | IC50 [16]: 9.78 µg/mL | IC90 [16]: 22.7 µg/mL | IC50 [17]: 0.36 µg/mL | IC90 [17]: 18.8 µg/mL

CCC(=O)OCc1oc2c(c1C)C(=O)C(=O)c1c-2ccc2c(C)cccc12 [BS-TA-A03]
IC50 [1]: 6.4 µg/mL (≈ 17.7 µM) | IC90 [1]: > 16 µg/mL | IC50 [2]: 5.54 µg/mL (≈ 15.3 µM) | IC90 [2]: 17.1 µg/mL (≈ 47 µM) | IC50 [3]: 2.3 µg/mL (≈ 6.35 µM) | IC90 [3]: 6.61 µg/mL (≈ 18.2 µM) | IC50 [4]: 2.35 µg/mL (≈ 6.48 µM) | IC90 [4]: 7.79 µg/mL (≈ 21.5 µM) | IC50 [5]: 1.93 µg/mL (≈ 5.33 µM) | IC90 [5]: 9.65 µg/mL (≈ 26.6 µM) | IC50 [6]: 8.4 µg/mL (≈ 23.2 µM) | IC90 [6]: > 16 µg/mL | IC50 (A549 (human lung cancer)): 10.6 µg/mL (≈ 29.1 µM) | IC90 (A549 (human lung cancer)): 24.2 µg/mL (≈ 66.9 µM) | IC50 [7]: 14.2 µg/mL (≈ 39.3 µM) | IC90 [7]: > 16 µg/mL | IC50 [8]: 8.5 µg/mL (≈ 23.5 µM) | IC90 [8]: > 16 µg/mL | IC50 [9]: 15.5 µg/mL (≈ 42.7 µM) | IC90 [9]: > 16 µg/mL | IC50 [10]: 5 µg/mL (≈ 13.8 µM) | IC90 [10]: > 16 µg/mL | IC50 [11]: 10.6 µg/mL (≈ 29.2 µM) | IC90 [11]: > 16 µg/mL | IC50 [12]: 6.82 µg/mL (≈ 18.8 µM) | IC90 [12]: > 16 µg/mL | IC50 (MG63 (osteosarcoma)): 4.86 µg/mL (≈ 13.4 µM) | IC90 (MG63 (osteosarcoma)): > 16 µg/mL | IC50 [13]: 9.22 µg/mL (≈ 25.4 µM) | IC90 [13]: 23.2 µg/mL (≈ 64.2 µM) | IC50 [14]: 3.08 µg/mL (≈ 8.5 µM) | IC90 [14]: 13.3 µg/mL (≈ 36.8 µM) | IC50 (PC-3 (prostate cancer)): 14.4 µg/mL (≈ 39.8 µM) | IC90 (PC-3 (prostate cancer)): > 16 µg/mL | IC50 [15]: 2.77 µg/mL (≈ 7.64 µM) | IC90 [15]: > 16 µg/mL | IC50 [16]: > 16 µg/mL | IC90 [16]: > 16 µg/mL | IC50 [17]: > 16 µg/mL | IC90 [17]: > 16 µg/mL
